Laboratory results reported in ChEMBL document CHEMBL3872253, “Synthesis and in vitro antiproliferative activity of C5-benzyl substituted 2-amino-pyrrolo[2,3-d]pyrimidines as potent Hsp90 inhibitors” (Bioorg Med Chem Lett, 2017).

Experiments:
[1] = target: T1, Heat shock protein HSP90 (Homo sapiens) (UniProt P07900+P08238); test: Inhibition of Hsp90 in human MCF7 cells assessed as proteasomal degradation of Akt after 24 hrs by Western blot analysis; format: cell-based
[2] = target: T1, Heat shock protein HSP90 (Homo sapiens); test: Inhibition of HSP90 in human MCF7 cells assessed as increase in expression level of Hsp70 after 24 hrs by Western blot analysis; format: cell-based
[3] = target: T1, Heat shock protein HSP90 (Homo sapiens); test: Inhibition of Hsp90 in human MCF7 cells assessed as proteasomal degradation of Cdk4 after 24 hrs by Western blot analysis; format: cell-based
[4] = target: T1, Heat shock protein HSP90 (Homo sapiens); test: Inhibition of Hsp90 in human MCF7 cells assessed as proteasomal degradation of EGFR after 24 hrs by Western blot analysis; format: cell-based
[5] = target: T1, Heat shock protein HSP90 (Homo sapiens); test: Inhibition of Hsp90 in human MCF7 cells assessed as proteasomal degradation of Her2 after 24 hrs by Western blot analysis; format: cell-based
[6] = target: Heat shock protein HSP 90-alpha (Homo sapiens, UniProt P07900); test: Inhibition of FITC-labeled geldanamycin binding to human Hsp90alpha by fluorescence polarization assay
[7] = Growth inhibition of human HCT116 cells at 10 uM after 72 hrs by MTT assay; format: functional; conditions: HCT-116, 72 h
[8] = Growth inhibition of human HFF1 cells at 10 uM after 72 hrs by MTT assay; format: cell-based, HFF-1
[9] = Growth inhibition of human MCF7 cells at 10 uM after 72 hrs by MTT assay; format: functional; conditions: MCF7, 72 h
[10] = Growth inhibition of human SKBR3 cells at 10 uM after 72 hrs by MTT assay; format: functional; conditions: SK-BR-3, 72 h
cells [11] = conditions: Homo sapiens, SF-539, 48 h
Description: Cytotoxicity against human SF539 cells after 48 hrs by sulforhodamine B assay

cells [12] = conditions: Homo sapiens, HCT-116, 48 h
Description: Cytotoxicity against human HCT116 cells after 48 hrs by sulforhodamine B assay

cells [13] = conditions: Homo sapiens, T47D, 48 h
Description: Cytotoxicity against human T47D cells after 48 hrs by sulforhodamine B assay

cells [14] = conditions: Homo sapiens, NCI-H226, 48 h
Description: Cytotoxicity against human NCI-H226 cells after 48 hrs by sulforhodamine B assay

cells [15] = conditions: Homo sapiens, U-251, 48 h
Description: Cytotoxicity against human U251 cells after 48 hrs by sulforhodamine B assay

cells [16] = conditions: Homo sapiens, M14, 48 h
Description: Cytotoxicity against human M14 cells after 48 hrs by sulforhodamine B assay

cells [17] = conditions: Homo sapiens, OVCAR-5, 48 h
Description: Cytotoxicity against human OVCAR5 cells after 48 hrs by sulforhodamine B assay

[18] = Cytotoxicity against human NCI-ADR-RES cells after 48 hrs by sulforhodamine B assay; format: functional
cells [19] = conditions: Homo sapiens, HOP-92, 48 h
Description: Cytotoxicity against human HOP92 cells after 48 hrs by sulforhodamine B assay

cells [20] = conditions: Homo sapiens, KM12, 48 h
Description: Cytotoxicity against human KM12 cells after 48 hrs by sulforhodamine B assay

cells [21] = conditions: Homo sapiens, TK-10, 48 h
Description: Cytotoxicity against human TK10 cells after 48 hrs by sulforhodamine B assay

cells [22] = conditions: Homo sapiens, SF-295, 48 h
Description: Cytotoxicity against human SF295 cells after 48 hrs by sulforhodamine B assay

cells [23] = conditions: Homo sapiens, LOX IMVI, 48 h
Description: Cytotoxicity against human LOXIMVI cells after 48 hrs by sulforhodamine B assay

cells [24] = conditions: Homo sapiens, HCT-15, 48 h
Description: Cytotoxicity against human HCT15 cells after 48 hrs by sulforhodamine B assay

cells [25] = conditions: Homo sapiens, CAKI-1, 48 h
Description: Cytotoxicity against human Caki1 cells after 48 hrs by sulforhodamine B assay

cells [26] = conditions: Homo sapiens, NCI-H23, 48 h
Description: Cytotoxicity against human NCI-H23 cells after 48 hrs by sulforhodamine B assay

cells [27] = conditions: Homo sapiens, SK-MEL-5, 48 h
Description: Cytotoxicity against human SK-MEL-5 cells after 48 hrs by sulforhodamine B assay

cells [28] = conditions: Homo sapiens, SK-MEL-2, 48 h
Description: Cytotoxicity against human SK-MEL-2 cells after 48 hrs by sulforhodamine B assay

cells [29] = conditions: Homo sapiens, MDA-MB-231, 48 h
Description: Cytotoxicity against human MDA-MB-231 cells after 48 hrs by sulforhodamine B assay

cells [30] = conditions: Homo sapiens, UACC-257, 48 h
Description: Cytotoxicity against human UACC257 cells after 48 hrs by sulforhodamine B assay

cells [31] = conditions: Homo sapiens, PC-3, 48 h
Description: Cytotoxicity against human PC3 cells after 48 hrs by sulforhodamine B assay

cells [32] = conditions: Homo sapiens, 786-0, 48 h
Description: Cytotoxicity against human 786-0 cells after 48 hrs by sulforhodamine B assay

cells [33] = conditions: Homo sapiens, BT-549, 48 h
Description: Cytotoxicity against human BT549 cells after 48 hrs by sulforhodamine B assay

cells [34] = conditions: Homo sapiens, Malme-3M, 48 h
Description: Cytotoxicity against human MALME-3M cells after 48 hrs by sulforhodamine B assay

cells [35] = conditions: Homo sapiens, SN12C, 48 h
Description: Cytotoxicity against human SN12C cells after 48 hrs by sulforhodamine B assay

[36] = Cytotoxicity against human Hs 578T cells after 48 hrs by sulforhodamine B assay; format: functional
[37] = Growth inhibition of human MDA-MB-468 cells after 48 hrs by sulforhodamine B assay; format: functional; conditions: MDA-MB-468, 48 h
cells [38] = conditions: Homo sapiens, UO-31, 48 h
Description: Cytotoxicity against human UO31 cells after 48 hrs by sulforhodamine B assay

cells [39] = conditions: Homo sapiens, HL-60, 48 h
Description: Cytotoxicity against human HL-60(TB) cells after 48 hrs by sulforhodamine B assay

[40] = Cytotoxicity against human SR cells after 48 hrs by sulforhodamine B assay; format: functional
cells [41] = conditions: Homo sapiens, SNB-75, 48 h
Description: Cytotoxicity against human SNB75 cells after 48 hrs by sulforhodamine B assay

cells [42] = conditions: Homo sapiens, HOP-62, 48 h
Description: Cytotoxicity against human HOP62 cells after 48 hrs by sulforhodamine B assay

cells [43] = conditions: Homo sapiens, SNB-19, 48 h
Description: Cytotoxicity against human SNB19 cells after 48 hrs by sulforhodamine B assay

cells [44] = conditions: Homo sapiens, HT-29, 48 h
Description: Cytotoxicity against human HT-29 cells after 48 hrs by sulforhodamine B assay

cells [45] = conditions: Homo sapiens, COLO 205, 48 h
Description: Cytotoxicity against human COLO205 cells after 48 hrs by sulforhodamine B assay

cells [46] = conditions: Homo sapiens, RXF 393, 48 h
Description: Cytotoxicity against human RXF393 cells after 48 hrs by sulforhodamine B assay

cells [47] = conditions: Homo sapiens, SW-620, 48 h
Description: Cytotoxicity against human SW620 cells after 48 hrs by sulforhodamine B assay

cells [48] = conditions: Homo sapiens, CCRF-CEM, 48 h
Description: Cytotoxicity against human CCRF-CEM cells after 48 hrs by sulforhodamine B assay

cells [49] = conditions: Homo sapiens, NCI-H460, 48 h
Description: Cytotoxicity against human NCI-H460 cells after 48 hrs by sulforhodamine B assay

cells [50] = conditions: Homo sapiens, OVCAR-3, 48 h
Description: Cytotoxicity against human OVCAR3 cells after 48 hrs by sulforhodamine B assay

cells [51] = conditions: Homo sapiens, OVCAR-8, 48 h
Description: Cytotoxicity against human OVCAR8 cells after 48 hrs by sulforhodamine B assay

cells [52] = conditions: Homo sapiens, NCI-H522, 48 h
Description: Cytotoxicity against human NCI-H522 cells after 48 hrs by sulforhodamine B assay

cells [53] = conditions: Homo sapiens, MCF7, 48 h
Description: Cytotoxicity against human MCF7 cells after 48 hrs by sulforhodamine B assay

cells [54] = conditions: Homo sapiens, OVCAR-4, 48 h
Description: Cytotoxicity against human OVCAR4 cells after 48 hrs by sulforhodamine B assay

cells [55] = conditions: Homo sapiens, RPMI-8226, 48 h
Description: Cytotoxicity against human RPMI8226 cells after 48 hrs by sulforhodamine B assay

cells [56] = conditions: Homo sapiens, K562, 48 h
Description: Cytotoxicity against human K562 cells after 48 hrs by sulforhodamine B assay

[57] = Cytotoxicity against human A549/ATCC cells after 48 hrs by sulforhodamine B assay; format: functional; conditions: A549, 48 h
cells [58] = conditions: Homo sapiens, HCC 2998, 48 h
Description: Cytotoxicity against human HCC2998 cells after 48 hrs by sulforhodamine B assay

cells [59] = conditions: Homo sapiens, UACC-62, 48 h
Description: Cytotoxicity against human UACC62 cells after 48 hrs by sulforhodamine B assay

cells [60] = conditions: Homo sapiens, DU-145, 48 h
Description: Cytotoxicity against human DU145 cells after 48 hrs by sulforhodamine B assay

cells [61] = conditions: Homo sapiens, EKVX, 48 h
Description: Cytotoxicity against human EKVX cells after 48 hrs by sulforhodamine B assay

cells [62] = conditions: Homo sapiens, A498, 48 h
Description: Cytotoxicity against human A498 cells after 48 hrs by sulforhodamine B assay

cells [63] = conditions: Homo sapiens, SK-OV-3, 48 h
Description: Cytotoxicity against human SKOV3 cells after 48 hrs by sulforhodamine B assay

cells [64] = conditions: Homo sapiens, MDA-MB-435, 48 h
Description: Cytotoxicity against human MDA-MB-435 cells after 48 hrs by sulforhodamine B assay

cells [65] = conditions: Homo sapiens, MOLT-4, 48 h
Description: Cytotoxicity against human MOLT4 cells after 48 hrs by sulforhodamine B assay

cells [66] = conditions: Homo sapiens, IGROV-1, 48 h
Description: Cytotoxicity against human IGROV1 cells after 48 hrs by sulforhodamine B assay

cells [67] = conditions: Homo sapiens, ACHN, 48 h
Description: Cytotoxicity against human ACHN cells after 48 hrs by sulforhodamine B assay

cells [68] = conditions: Homo sapiens, SF-268, 48 h
Description: Cytotoxicity against human SF268 cells after 48 hrs by sulforhodamine B assay

cells [69] = conditions: Homo sapiens, SK-MEL-28, 48 h
Description: Cytotoxicity against human SK-MEL-28 cells after 48 hrs by sulforhodamine B assay

With `COc1c(C)cnc(Cn2cc(Cc3ccccc3)c3c(Cl)nc(N)nc32)c1C` the inhibition [1] was “Dose-dependent effect”, the inhibition [2] was “Dose-dependent effect” and the inhibition [3] was “Dose-dependent effect”. The inhibition [4] was “Dose-dependent effect”, the inhibition [5] was “Dose-dependent effect” and the IC50 [6] was 36 nM.

In the case of `COc1ccc(Cc2cn(Cc3ncc(C)c(OC)c3C)c3nc(N)nc(Cl)c23)cc1`, the inhibition at 10 µM [7] is reported as 80.9%, the inhibition at 72 h, 10 µM [8] is reported as 10.1% and the inhibition at 10 µM [9] is reported as 80.1%. For the same compound, the inhibition at 10 µM [10] was 69.4% and the IC50 [6] was 94 nM.

Work on `COc1c(C)cnc(Cn2cc(Cc3cccc(C)c3)c3c(Cl)nc(N)nc32)c1C` yielded an IC50 [6] of 51 nM.

Compound `COc1cc(Cc2cn(Cc3ncc(C)c(OC)c3C)c3nc(N)nc(Cl)c23)ccc1Br` has an IC50 [6] of 79 nM.

Work on `Nc1nc(Cl)c2c(Cc3ccccc3)cn(Cc3cc4c(cc3I)OCO4)c2n1` yielded an inhibition at 10 µM [7] of 74.5%, an inhibition at 72 h, 10 µM [8] of 36.2% and an inhibition at 10 µM [9] of 74%. The inhibition at 10 µM [10] was 63.8% and the IC50 [6] was 750 nM.

For `COc1c(C)cnc(Cn2cc(Cc3ccc(C)cc3)c3c(Cl)nc(N)nc32)c1C`, the IC50 [6] was 58 nM.

Work on `Nc1nc(Cl)c2c(Cc3ccccc3)cn(Cc3ccc4c(c3)OCO4)c2n1` yielded an inhibition at 10 µM [7] of 48.8%, an inhibition at 72 h, 10 µM [8] of 11.2% and an inhibition at 10 µM [9] of 54%. The inhibition at 10 µM [10] was 4.32%.

`COc1c(C)cnc(Cn2cc(Cc3ccc(Cl)cc3)c3c(Cl)nc(N)nc32)c1C` showed an IC50 [6] of 48 nM.

`Nc1nc(Cl)c2c(Cc3ccccc3)cn(Cc3cc4c(cc3Br)OCO4)c2n1` gave an inhibition at 10 µM [7] of 70.4%, an inhibition at 72 h, 10 µM [8] of 20.7% and an inhibition at 10 µM [9] of 69.9%. The inhibition at 10 µM [10] was 40.9% and the IC50 [6] was 650 nM.

For `COc1c(C)cnc(Cn2cc(Cc3cccc(C(F)(F)F)c3)c3c(Cl)nc(N)nc32)c1C`, the IC50 [6] was 8700 nM.

Compound `COc1c(C)cnc(Cn2cnc3c(Cl)nc(N)nc32)c1C` [BIIB021] has an inhibition at 10 µM [7] of 71.9%, an inhibition at 72 h, 10 µM [8] of 51.3% and an inhibition at 10 µM [9] of 84.8%. The inhibition at 10 µM [10] was 86.2%.

Work on `CC(C)NCCCn1c(Sc2cc3c(cc2I)OCO3)nc2c(N)ncnc21` [PU-H71] yielded a GI50 (cells [11]) of 851 nM, a GI50 (cells [12]) of 63 nM and a GI50 (cells [13]) of 155 nM. The GI50 (cells [14]) was 759 nM, the GI50 (cells [15]) was 129 nM and the GI50 (cells [16]) was 234 nM. For the same compound, the GI50 (cells [17]) was 3.02 µM, the GI50 [18] was 3.63 µM and the GI50 (cells [19]) was 288 nM. The GI50 (cells [20]) was 59 nM, the GI50 (cells [21]) was 162 nM and the GI50 (cells [22]) was 145 nM. The GI50 (cells [23]) was 79 nM, the GI50 (cells [24]) was 437 nM and the GI50 (cells [25]) was 525 nM. It also gave a GI50 (cells [26]) of 89 nM, a GI50 (cells [27]) of 457 nM and a GI50 (cells [28]) of 355 nM. For the same compound, the GI50 (cells [29]) was 479 nM, the GI50 (cells [30]) was 309 nM and the GI50 (cells [31]) was 132 nM. For the same compound, the GI50 (cells [32]) was 513 nM, the GI50 (cells [33]) was 1510 nM and the GI50 (cells [34]) was 123 nM. It also gave an inhibition at 10 µM [7] of 78.4%, a GI50 (cells [35]) of 174 nM and a GI50 [36] of 1290 nM. For the same compound, the GI50 [37] was 83 nM, the GI50 (cells [38]) was 324 nM and the GI50 (cells [39]) was 63 nM. It also gave a GI50 [40] of 60 nM, a GI50 (cells [41]) of 724 nM and a GI50 (cells [42]) of 263 nM. The GI50 (cells [43]) was 646 nM, the GI50 (cells [44]) was 38 nM and the GI50 (cells [45]) was 48 nM. The GI50 (cells [46]) was 759 nM, the GI50 (cells [47]) was 59 nM and the GI50 (cells [48]) was 427 nM. It also gave a GI50 (cells [49]) of 58 nM, a GI50 (cells [50]) of 589 nM and a GI50 (cells [51]) of 155 nM. The GI50 (cells [52]) was 59 nM, the GI50 (cells [53]) was 46 nM and the GI50 (cells [54]) was 33.1 µM. For the same compound, the GI50 (cells [55]) was 1510 nM, the GI50 (cells [56]) was 71 nM and the GI50 [57] was 87 nM. For the same compound, the GI50 (cells [58]) was 282 nM, the GI50 (cells [59]) was 372 nM and the GI50 (cells [60]) was 48 nM. It also gave a GI50 (cells [61]) of 2510 nM, a GI50 (cells [62]) of 437 nM and a GI50 (cells [63]) of 45 nM. For the same compound, the GI50 (cells [64]) was 91 nM, the GI50 (cells [65]) was 91 nM and the inhibition at 10 µM [9] was 70.5%. For the same compound, the GI50 (cells [66]) was 89 nM, the GI50 (cells [67]) was 295 nM and the GI50 (cells [68]) was 2090 nM. For the same compound, the inhibition at 10 µM [10] was 65.3% and the GI50 (cells [69]) was 417 nM.

For `C=CCNC1=C2C[C@@H](C)C[C@H](OC)[C@H](O)[C@@H](C)/C=C(\C)[C@H](OC(N)=O)[C@@H](OC)/C=C\C=C(/C)C(=O)NC(=CC1=O)C2=O` [TANESPIMYCIN], the inhibition at 10 µM [7] was 74.4%, the inhibition at 72 h, 10 µM [8] was 65.5% and the inhibition at 10 µM [9] was 79.7%. For the same compound, the inhibition at 10 µM [10] was 88.9%.
